Results as given in article PMC10721329, “Quisinostat is a brain-penetrant radiosensitizer in glioblastoma” (JCI Insight, 2023).
“And” between values parts separate entries of the source, which are not always exact repeats. Equal entries are not always repeated.

How the values were obtained:
[1] = Stability in human brain homogenate at 37°C; assay type: in vitro ADME; conditions: for %stability in human brain homogenate, mean / stability in human brain homogenate, [QST], % of control: 37 C; for stability in human brain homogenate, [QST], % of control: single data points
Procedure: (§1) Hydroxamic acid–based compounds have been reported to display poor stability and high plasma clearance due to the presence of arylesterases and carboxylesterases in rodent blood ([34]). Therefore, we measured the stability of QST in mouse plasma and brain to determine whether drug degradation occurred during our sample preparations and equilibrium dialyses for the determination of unbound drug level (performed at 37°C). […] QST degradation was also observed in mouse brain homogenate (Figure 6B). However, perfusion of mice before brain collection prevented rapid drug degradation in the brain matrix. […] Degradation of QST can also be constrained if plasma and brain samples are processed at 4°C (Supplemental Figure 4A). All subsequent sample preparations were therefore performed on ice-cold baths to avoid degradation of QST in our PK analyses. […] The observed stability is probably due to the absence of esterases in human matrices, which are responsible for degradation of QST ([34]). Because we employed QST in several in vitro studies (Figures 1–4), the stability of the molecule was also tested in the cell media used to culture GSCs (neurobasal medium; see Methods).
(§2) Stability Study in Mouse Plasma, Mouse Brain, Human Plasma, Human Brain, and Neural […]
(§3) The stability of QST was determined in BALB/c mouse plasma, male nude athymic perfused and nonperfused mouse brain homogenate (1:9 w/v of PBS; pH 7.4), human brain (obtained from VRL Eurofins) homogenate (1:4 w/v of PBS; pH 7.4), pooled human plasma (Innovative Research), and neurobasal media. QST stock solutions (1 mM) were prepared in acetonitrile, subsequently diluted in a 40% methanol mixture, and added t o the matrices to make final concentrations of 100 nM or 10 nM. Then 50 or 30 µL of either plasma or brain homogenate containing QST were aliquoted into 1.5-mL microcentrifuge tubes (Eppendorf) and were incubated at either 4 °C or 37 °C for 0, 2, 4, 6, 12, or 24 hours (n = 3 at each time point). […]
(§4) Plasma and brain […]
(§5) homogenate samples were stored at −80 °C until LC-MS/MS analysis. […]

[2] = Stability in neurobasal cell culture medium at 37°C; assay type: in vitro ADME; conditions: for %stability: neurobasal cell media, 37C
Procedure: as §1, §2, §3, §4, §5

[3] = test system: histone H3 acetylation (H3K9/14ac); experiment: H3K9/14ac immunoblot of normal brain tissue; assay type: in vivo, athymic nude mice; conditions: QST 10 mg/kg IP MWF 2 weeks, individual mice
Procedure: Insufficient drug exposure in the brain is a major hurdle in the treatment of brain tumors. […] On the last treatment day, blood and intact brains were harvested 2 hours after dosing with QST (Figure 6E). […] Each brain hemisphere was processed separately to perform matched PK and PD analyses from the same animal. […] For PD analyses, we homogenized entire hemispheres to obtain whole-tissue protein lysates from each mouse and assessed changes in histone H3 acetylation levels using immunoblotting.
Cellular protein from cultured cells was homogenized in radioimmunoprecipitation assay (RIPA) lysis buffer containing protease and phosphatase inhibitors (ThermoFisher Scientific), rotated at 4 °C for 20 minutes and then centrifuged at 15,000 rpm for 10 minutes at 4 °C. For histone extractions, benzonase (0.1 U/μL) was added in RIPA buffer (Millipore-Sigma, 70746-4). Protein concentrations from whole-cell extracts were determined using the Bradford Protein Assay (ThermoFisher Scientific). Equal amounts of protein (10-40 μg/lane) were loaded onto 10% or 12.5% sodium dodecyl sulfate–polyacrylamide gel electrophoresis gels and transferred to a polyvinylidene fluoride membrane (Millipore-Sigma). […]

Structure (SMILES): Cn1cc(CNCC2CCN(c3ncc(C(=O)NO)cn3)CC2)c2ccccc21 [QST, quisinostat]
- %stability in human brain homogenate, mean ([1]; 10 nM, 0 hrs): 100 % of control
- stability in human brain homogenate, [QST], % of control ([1]; 10 nM, 0 hrs): 101.7 % of control and 98.5 % of control and 98.3 % of control
- %stability in human brain homogenate, mean ([1]; 10 nM, 2 hrs): 90.6 % of control
- stability in human brain homogenate, [QST], % of control ([1]; 10 nM, 2 hrs): 87.5 % of control and 89.1 % of control and 95.1 % of control
- %stability in human brain homogenate, mean ([1]; 10 nM, 6 hrs): 94.8 % of control
- stability in human brain homogenate, [QST], % of control ([1]; 10 nM, 6 hrs): 95.6 % of control and 93.7 % of control and 94.9 % of control
- %stability in human brain homogenate, mean ([1]; 10 nM, 24 hrs): 82.9 % of control
- stability in human brain homogenate, [QST], % of control ([1]; 10 nM, 24 hrs): 83.1 % of control and 81 % of control and 84.6 % of control
- %stability in human brain homogenate, mean ([1]; 100 nM, 0 hrs): 100 % of control
- stability in human brain homogenate, [QST], % of control ([1]; 100 nM, 0 hrs): 98.8 % of control and 102.5 % of control and 98.7 % of control
- %stability in human brain homogenate, mean ([1]; 100 nM, 2 hrs): 89.0 % of control
- stability in human brain homogenate, [QST], % of control ([1]; 100 nM, 2 hrs): 90.7 % of control and 89.5 % of control and 86.8 % of control
- %stability in human brain homogenate, mean ([1]; 100 nM, 6 hrs): 92.7 % of control
- stability in human brain homogenate, [QST], % of control ([1]; 100 nM, 6 hrs): 93.9 % of control and 90.6 % of control and 93.7 % of control
- %stability in human brain homogenate, mean ([1]; 100 nM, 24 hrs): 84.4 % of control
- stability in human brain homogenate, [QST], % of control ([1]; 100 nM, 24 hrs): 81.6 % of control and 84.2 % of control and 87.3 % of control
- stability in human brain homogenate ([1]; 37°C): completely stable
- %stability ([2]; 10 nM, time 0 hrs (15 minutes used as zero hour time point)): 101.6% and 100.2% and 98.2%
- %stability ([2]; 10 nM, time 0 hrs (15 minutes used as zero hour time point), mean): 100.0%
- %stability ([2]; 10 nM, time 2 hrs): 102.7% and 80.7% and 97.1%
- %stability ([2]; 10 nM, time 2 hrs, mean): 93.5%
- %stability ([2]; 10 nM, time 5 hrs): 88.0% and 90.7% and 90.1%
- %stability ([2]; 10 nM, time 5 hrs, mean): 89.6%
- %stability ([2]; 10 nM, time 24 hrs): 69.7% and 66.1%
- %stability ([2]; 10 nM, time 24 hrs, mean): 68.5%
- %stability ([2]; 100 nM, time 0 hrs (15 minutes used as zero hour time point)): 85.1% and 110.5% and 104.4%
- %stability ([2]; 100 nM, time 0 hrs (15 minutes used as zero hour time point), mean): 100.0%
- %stability ([2]; 100 nM, time 2 hrs): 109.4% and 82.9% and 110.7%
- %stability ([2]; 100 nM, time 2 hrs, mean): 101.0%
- %stability ([2]; 100 nM, time 5 hrs): 95.9% and 77.8% and 80.7%
- %stability ([2]; 100 nM, time 5 hrs, mean): 84.8%
- %stability ([2]; 100 nM, time 24 hrs): 73.1% and 67.2% and 68.6%
- %stability ([2]; 100 nM, time 24 hrs, mean): 69.6%
- QST intact in cell media ([2]; neurobasal medium, 24-hour incubation, 37°C): approximately 70%
- H3K9/14ac levels normalized to B-actin (fold change) [3]: 2.1642 and 2.588 and 3.2892 and 1.999 and 1.763
